Results as given in patent US11781101B2, “3D-printed models of biological microenvironments” (Regents of the University of Minnesota, priority 2018, dated 2023).

Test system: HUVEC-lined conduit
Settings: laser-triggered release of VEGF from capsules on one side of conduit
Source text: To mimic the beginning of a metastatic cascade in the context of cell types relevant to the tumor microenvironment, a vascularized 3D-printed culture chamber was configured to provide spatiotemporal control over both tumor cell invasion and angiogenesis as illustrated in FIG. 28. The angiogenic mediator VEGF was introduced to promote and direct the formation of a vascular network from a pre-existing uniaxial conduit.

VEGF
endothelial sprouting from the conduit: numerous endothelial cells sprouted from the conduit
